Reference: publication PMC3155282 (ACS Medicinal Chemistry Letters, 2011)

Legend:
cytochrome P450s = conditions: cited from earlier work
[1] = system: others of recombinant CYP1A2, 2B6, 2C8, 2C9, 2C19, 2D6 and 3A4; conditions: recombinant enzyme
CYP2D6 and 2J2 = conditions: catalyzed by CYP2D6 and 2J2; cited from earlier work
CYP3A4 [2] = target: T1, CYP3A4 (Homo sapiens, UniProt P08684); conditions: cited from earlier work
CYP3A4 [3] = target: T1, CYP3A4; conditions: recombinant enzyme
CYP2D6 = CYP2D6 (Homo sapiens, UniProt P10635); conditions: recombinant enzyme
CYP2C8 = target: T2, CYP2C8 (Homo sapiens, UniProt P10632); assay: P450 isoform phenotyping assay, parent compound depletion, recombinant CYP2C8; format: in vitro ADME; conditions: recombinant CYP2C8, 1 µM compound
T2 sequence (P10632 1-490): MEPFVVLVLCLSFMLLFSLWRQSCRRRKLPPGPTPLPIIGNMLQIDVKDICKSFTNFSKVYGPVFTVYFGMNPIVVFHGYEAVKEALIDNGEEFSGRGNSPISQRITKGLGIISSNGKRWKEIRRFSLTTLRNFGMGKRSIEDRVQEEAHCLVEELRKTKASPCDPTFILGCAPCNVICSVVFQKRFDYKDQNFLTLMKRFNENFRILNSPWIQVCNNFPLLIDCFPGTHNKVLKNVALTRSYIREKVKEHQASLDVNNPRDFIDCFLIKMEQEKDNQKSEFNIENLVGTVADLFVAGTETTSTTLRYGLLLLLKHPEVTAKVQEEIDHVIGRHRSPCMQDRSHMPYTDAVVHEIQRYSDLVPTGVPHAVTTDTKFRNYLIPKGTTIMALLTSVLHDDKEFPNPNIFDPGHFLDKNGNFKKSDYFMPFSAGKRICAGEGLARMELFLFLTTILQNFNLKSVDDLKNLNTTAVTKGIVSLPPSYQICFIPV

T1 sequence (P08684 whole entry): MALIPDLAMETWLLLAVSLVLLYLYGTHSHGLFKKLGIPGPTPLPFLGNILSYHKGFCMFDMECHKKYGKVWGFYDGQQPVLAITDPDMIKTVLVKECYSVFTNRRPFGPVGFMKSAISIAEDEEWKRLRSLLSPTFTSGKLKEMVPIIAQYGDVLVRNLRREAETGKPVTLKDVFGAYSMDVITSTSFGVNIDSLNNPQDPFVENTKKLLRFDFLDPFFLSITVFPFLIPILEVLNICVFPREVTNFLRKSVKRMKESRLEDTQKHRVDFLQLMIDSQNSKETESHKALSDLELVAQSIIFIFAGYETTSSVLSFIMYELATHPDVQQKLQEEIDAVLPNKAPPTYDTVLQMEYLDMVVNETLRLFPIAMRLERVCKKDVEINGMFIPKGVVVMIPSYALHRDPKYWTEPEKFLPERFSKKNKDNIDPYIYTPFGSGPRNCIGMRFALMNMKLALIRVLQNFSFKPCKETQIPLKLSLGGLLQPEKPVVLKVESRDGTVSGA
CYP2D6, sequence (P10635 whole entry, canonical isoform): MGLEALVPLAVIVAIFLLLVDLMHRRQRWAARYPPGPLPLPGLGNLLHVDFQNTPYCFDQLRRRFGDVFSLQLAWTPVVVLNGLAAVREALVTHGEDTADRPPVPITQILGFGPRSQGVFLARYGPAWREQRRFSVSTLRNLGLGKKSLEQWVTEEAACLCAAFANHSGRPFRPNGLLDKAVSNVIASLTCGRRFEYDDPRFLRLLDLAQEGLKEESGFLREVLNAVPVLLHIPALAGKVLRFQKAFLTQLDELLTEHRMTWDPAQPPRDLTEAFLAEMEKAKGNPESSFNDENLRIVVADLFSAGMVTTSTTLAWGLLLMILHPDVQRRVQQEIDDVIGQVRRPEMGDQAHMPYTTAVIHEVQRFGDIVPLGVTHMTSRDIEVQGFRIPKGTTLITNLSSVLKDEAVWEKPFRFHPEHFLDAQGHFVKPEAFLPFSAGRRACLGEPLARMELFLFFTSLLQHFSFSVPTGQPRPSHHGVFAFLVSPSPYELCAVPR

Row | SMILES | N-dealkylation (major or minor pathway) (cytochrome P450s) | half-life (t1/2) of parent compound depletion from phenotyping assay, others [1] | conversion from astemizole to O-desmethylastemizole (CYP2D6 and 2J2) [%] | conversion from astemizole to benzimidazole hydroxylated metabolite (CYP3A4 [2]) [%] | half-life (t1/2) of parent compound depletion from phenotyping assay, 3A4 (CYP3A4 [3]) | half-life (t1/2) of parent compound depletion from phenotyping assay, 2D6 (CYP2D6) | half-life (t1/2) of parent compound depletion from phenotyping assay, 2C8 (CYP2C8) | contribution of CYP2D6 to metabolism (CYP2D6)
1 | COc1ccc(CCN2CCC(Nc3nc4ccccc4n3Cc3ccc(F)cc3)CC2)cc1 [astemizole] | minor | 3A4 (1.5 m), 2D6 (4.0 m), others (>60 m) | 67 | 25 | 3A4 (1.5 m), 2D6 (4.0 m), others (>60 m) | 3A4 (1.5 m), 2D6 (4.0 m), others (>60 m) |  | 
2 | CN1CCC(N(Cc2ccccc2)c2ccccc2)CC1 [bamipine] | major |  |  |  |  |  |  | 
3 | O=C(CCCN1CCC(n2c(O)nc3ccccc32)CC1)c1ccc(F)cc1 [benperidol] | major | 3A4 (3.3 m), 2D6 (10.4 m), 2C8 (43.8 m), others (>60 m) |  |  | 3A4 (3.3 m), 2D6 (10.4 m), 2C8 (43.8 m), others (>60 m) | 3A4 (3.3 m), 2D6 (10.4 m), 2C8 (43.8 m), others (>60 m) | 3A4 (3.3 m), 2D6 (10.4 m), 2C8 (43.8 m), others (>60 m) | 
4 | COc1cc(N)c(Cl)cc1C(=O)NC1CCN(CCCOc2ccc(F)cc2)CC1OC (centres unmarked) [cisapride] | major | 3A4 (<5 m), others (>60 m) |  |  |  |  |  | 
5 | COc1cc(N)c(Cl)cc1C(=O)NC1CCN(Cc2ccccc2)CC1 [clebopride] | major | 3A4 (<5 m), others (>60 m) |  |  | 3A4 (<5 m), others (>60 m) |  |  | 
6 | O=C(NC1CCN(CCc2c[nH]c3ccccc23)CC1)c1ccccc1 [indoramin] | minor | 2D6 (<5 m), 3A4 (16.0 m), others (>60 m) |  |  | 2D6 (<5 m), 3A4 (16.0 m), others (>60 m) | 2D6 (<5 m), 3A4 (16.0 m), others (>60 m) |  | contributed significantly
7 | O=c1[nH]c2ccccc2n1C1CCN(CCCC(c2ccc(F)cc2)c2ccc(F)cc2)CC1 [pimozide] | major | 3A4 (2.7 m), 2D6 (3.2 m), others (>60 m) |  |  | 3A4 (2.7 m), 2D6 (3.2 m), others (>60 m) | 3A4 (2.7 m), 2D6 (3.2 m), others (>60 m) |  | 
8 | CN(c1nc2ccccc2s1)C1CCN(CC(O)COc2ccc(F)cc2)CC1 (centres unmarked) [sabeluzole] | minor | 2D6 (1.5 m), 3A4 (<5.0 m), others (>60 m) |  |  | 2D6 (1.5 m), 3A4 (<5.0 m), others (>60 m) | 2D6 (1.5 m), 3A4 (<5.0 m), others (>60 m) |  | contributed significantly
9 | O=C(CCCN1CCC(n2c(=S)[nH]c3ccccc32)CC1)c1ccc(F)cc1 [timiperone] | major |  |  |  |  |  |  | 
